Patent US11020378B2, “Compounds, compositions and methods for treating insulin resistance” (UNIVERSITE PARIS DESCARTES, priority 2017, dated 2021)
Like-named read-outs stand apart in the source and are kept apart here.

Tests used:
IR-Grb14 interaction = biological target: T1, IR-Grb14 interaction (Homo sapiens, UniProt P06213); assay: IR-Luc/Grb14-YFP BRET technique in a cell-free system; assay type: binding; settings: for remaining activity at 50 µM / % BRET signal/DMSO control: insulin stimulation (100 nM)
T1 construct: a vector encoding the insulin receptor fused to the luciferase (IR-Luc); made in house; host or cells: HEK293T (transfected); IR-Luc was partially purified on wheat germ lectin sepharose; Grb14-YFP was used as crude lysate
T1 sequence (P06213 763-1382 limits assumed): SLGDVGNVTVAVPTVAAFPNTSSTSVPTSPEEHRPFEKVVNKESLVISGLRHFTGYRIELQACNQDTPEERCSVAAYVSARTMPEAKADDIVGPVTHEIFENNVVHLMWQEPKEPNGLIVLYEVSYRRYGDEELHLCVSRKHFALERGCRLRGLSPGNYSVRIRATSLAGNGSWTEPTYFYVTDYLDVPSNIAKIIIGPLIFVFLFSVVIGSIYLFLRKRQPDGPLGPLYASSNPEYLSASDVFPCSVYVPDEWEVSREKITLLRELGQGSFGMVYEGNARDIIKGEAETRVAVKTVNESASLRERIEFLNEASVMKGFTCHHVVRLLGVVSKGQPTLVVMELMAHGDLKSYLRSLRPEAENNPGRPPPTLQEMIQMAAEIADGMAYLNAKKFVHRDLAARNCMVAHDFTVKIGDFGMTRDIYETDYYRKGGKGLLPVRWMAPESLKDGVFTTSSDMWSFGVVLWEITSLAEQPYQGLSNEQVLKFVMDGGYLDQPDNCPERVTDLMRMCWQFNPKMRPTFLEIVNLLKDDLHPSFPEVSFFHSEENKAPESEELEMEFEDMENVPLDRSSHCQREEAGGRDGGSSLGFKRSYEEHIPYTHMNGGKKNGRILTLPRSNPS
T1 sequence (P06213 28-758 partner limits assumed): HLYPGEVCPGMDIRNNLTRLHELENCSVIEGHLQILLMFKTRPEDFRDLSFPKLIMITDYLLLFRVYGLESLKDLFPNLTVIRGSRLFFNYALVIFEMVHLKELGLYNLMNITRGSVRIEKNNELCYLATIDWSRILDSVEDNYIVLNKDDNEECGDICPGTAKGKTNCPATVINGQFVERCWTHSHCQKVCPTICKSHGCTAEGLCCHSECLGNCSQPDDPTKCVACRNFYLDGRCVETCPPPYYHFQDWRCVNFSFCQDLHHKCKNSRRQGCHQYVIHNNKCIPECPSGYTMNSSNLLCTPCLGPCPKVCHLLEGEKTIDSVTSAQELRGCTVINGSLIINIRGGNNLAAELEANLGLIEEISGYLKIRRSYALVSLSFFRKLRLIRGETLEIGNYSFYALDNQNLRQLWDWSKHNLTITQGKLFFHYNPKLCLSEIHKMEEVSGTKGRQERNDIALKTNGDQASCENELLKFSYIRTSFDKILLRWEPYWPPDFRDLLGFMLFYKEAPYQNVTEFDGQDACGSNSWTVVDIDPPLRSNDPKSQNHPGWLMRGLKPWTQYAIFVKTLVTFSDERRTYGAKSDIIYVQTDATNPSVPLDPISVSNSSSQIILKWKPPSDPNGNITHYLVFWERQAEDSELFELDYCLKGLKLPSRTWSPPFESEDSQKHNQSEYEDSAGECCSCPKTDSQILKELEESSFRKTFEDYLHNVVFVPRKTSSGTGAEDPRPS
Description: Compounds according to the invention were experimentally assessed for their inhibitory effect on the IR-Grb14 interaction by a BRET technique in a cell-free system described briefly below.
On the one hand, HEK293T cells were transfected with a vector encoding the insulin receptor fused to the luciferase (IR-Luc). Before lysis, the cells transfected with IR-Luc were stimulated or not with 100 nM insulin for 10 minutes. The IR-Luc lysates were recovered and then purified on sepharose beads coupled with wheat germ lectin (WGL for Wheat Germ Lectin). The IR-Luc receptors were then eluted and then frozen in liquid nitrogen before being stored at −80° C. On the other hand, HEK293T cells were transfected either with a vector encoding the Grb14 protein fused to the YFP (Grb14-YFP), or with the empty plasmid pcDNA3. The cells transfected with Grb14-YFP or with the empty plasmid pcDNA3 were lysed 48 h after transfection. After centrifugation, the lysates are recovered and frozen at −80° C.
The insulin receptors (IR-Luc) partially purified from cells stimulated or not with insulin were incubated for 20 minutes with the inhibitor compounds according to the invention suspended in DMSO. The cellular extracts from cells transfected with Grb14-YFP (or the empty plasmid pcDNA3) were then added and then after 40 minutes of incubation, coelenterazine was added and BRET reading was initiated. The results are expressed as a percentage of the BRET signal obtained in the presence of the molecules tested compared to the BRET signal of the DMSO control.

PI3K/Akt pathway = assay: Luc-Akt-PH/YFP-membrane BRET in HEK293T cells (recruitment of Akt to the membrane); assay type: cell-based; settings: for effect on the recruitment of kinase Akt to the membrane: in the absence of the hormone
From the text: To measure the activity of the PI3-kinase pathway by the BRET technique, HEK293T cells are transfected with plasmids allowing, on the one hand, the expression of the PH (Pleckstrin Homology) domain of the Akt protein which has been fused to the luciferase and, on the other hand, a membrane-addressing sequence which has been fused to the YFP protein. When the PH domain of Akt is recruited to the membrane by the PIP3s, an energy transfer between the luciferase that is coupled to the PH domain of Akt and the membrane YFP protein takes place. The measured BRET signal is a control of the production of PIP3s at the membrane and is a reflection of the activation of the PI-3-kinase/Akt pathway in real time on cells.

[1] = test system: PEPCK and G6Pase expression; assay: Expression of neoglucogenesis genes in hepatocytes in primary culture (RT-qPCR); assay type: cell-based, mice; settings: 1 nM insulin; glucagon 10 nM
Description: FIG. 6, the effect of the compound of Formula (Ia) according to the invention (black bars) on the expression of insulin target genes, PEPCK (FIG. 6A) and G6Pase (FIG. 6B), involved in the neoglucogenesis pathway. Hepatocytes in primary culture are cultured for 8 h in the presence of compounds of Formula (Ia) (50 μM), insulin (1 nM) and glucagon (pre-incubation 1 h at 10 nM). The relative quantification of mRNAs is performed by RT-qPCR. The values are related to the quantification of the 18S gene in the same sample in order to normalize the results. The results are the average of 3 to 5 independent experiments (*p<0.05, **p<0.01, by Anova followed by a Newman-Keuls test).
To study the inhibitory effect of insulin on neoglucogenesis gene expression, hepatocytes from mice in primary culture were pre-incubated with 10 nM glucagon.

[2] = read-out: % BRET signal/DMSO control, 50 μM
[3] = in the presence of insulin (5 nM)

| Compound | significant decrease in the BRET signal / reduction in the IR-Grb14 interaction (in words) (IR-Grb14 interaction; 50 μM) | % BRET signal/DMSO control (IR-Grb14 interaction; 50 μM) | remaining activity at 50 µM (IR-Grb14 interaction; [2]) [%] | also measured |
| --- | --- | --- | --- | --- |
| CCc1ccc(/C=C/C(=O)Nc2ccc(S(=O)(=O)Nc3onc(C)c3C)cc2)o1 [Ib] |  |  |  | remaining activity at 50 µM (IR-Grb14 interaction; 50 μM, read-out: % BRET signal/DMSO control): 58%; BRET delta (PI3K/Akt pathway; without insulin): 119 (+/−26) |
| CCOc1cc(C=C2C(=O)NC(=O)NC2=O)ccc1OCc1cccc(C(=O)O)c1 [Comparative D] | do not allow for a significant decrease | 121% (+/−8%) |  |  |
| CCOc1cc(C=C2C(=O)NC(=S)NC2=O)ccc1OCc1ccc(C(=O)O)cc1 [IIe] |  |  | 65 | BRET delta (PI3K/Akt pathway; without insulin): 96 (+/−50) |
| CCOc1cc(C=C2C(=O)NC(=O)NC2=O)ccc1OCc1cccc(C(=O)O)c1 [Comparative B] | do not allow for a significant decrease | 93% (+/−7%) |  |  |
| CCOc1cc(C=C2C(=O)NC(=O)NC2=O)ccc1OCc1cccc(C(=O)O)c1 [Comparative F] | do not allow for a significant decrease | 93% (+/−24%) |  |  |
| CCOc1ccc(/C=C2/C(=O)NC(=S)N(c3ccccc3)C2=O)cc1C(=O)O [IIf] |  |  | 65 | BRET delta (PI3K/Akt pathway; without insulin): 54 (+/−44) |
| CC(C)(C)c1cc(C=C(C#N)C#N)cc(Br)c1O [AG1024, reference compound] |  |  |  | BRET signal after inhibition of tyrosine kinase activity of the insulin receptor (PI3K/Akt pathway; pre-incubation 1 h with 25 μM): very significant drop |
| Cc1ccc(/C=C/C(=O)O)o1 [Comparative IVa, (E)-3-(5-methylfuran-2-yl)acrylic acid, reference compound] | do not allow for a reduction |  | 91 | effect on the recruitment of kinase Akt to the membrane (PI3K/Akt pathway): no effect; BRET delta (PI3K/Akt pathway; [3]): −61 (+/−35); reduction of the recruitment of the Akt protein to the membrane (PI3K/Akt pathway; [3]): about 50% |
| CCOc1cc(C=C2C(=O)NC(=O)NC2=O)ccc1OCc1cccc(C(=O)O)c1 [Comparative C] | do not allow for a significant decrease | 103% (+/−8%) |  |  |
| O=C1NC(=S)NC(=O)C1=Cc1ccc(OCc2cccc(C(=O)O)c2)cc1 [IId] |  |  | 69 | BRET delta (PI3K/Akt pathway; without insulin): 67 (+/−33) |
| CCOc1cc(C=C2C(=O)NC(=O)NC2=O)ccc1OCc1cccc(C(=O)O)c1 [Comparative E] | do not allow for a significant decrease | 98% (+/−9%) |  |  |
| Cc1noc(NS(=O)(=O)c2ccc(N)cc2)c1C [Comparative Va, 4-amino-N-(3,4-dimethyl-1,2-oxazol-5-yl)benzenesulfonamide, reference compound] | do not allow for a reduction |  | 98 | effect on the recruitment of kinase Akt to the membrane (PI3K/Akt pathway): no effect; BRET delta (PI3K/Akt pathway; [3]): −27 (+/−23); effect on the production of PIP3s at the membrane (PI3K/Akt pathway; [3]): no effect |
| CCOc1cc(C=C2C(=O)NC(=O)NC2=O)ccc1OCc1cccc(C(=O)O)c1 [Comparative A] | do not allow for a significant decrease | 103% (+/−15%) |  |  |
| COc1cc(C=C2C(=O)NC(=S)NC2=O)ccc1OCc1cccc(C(=O)O)c1 [IIc] |  |  | 75 | decrease in the BRET signal between the insulin receptor and the Grb14 protein (IR-Grb14 interaction; 50 μM, with insulin stimulation): 25% |
| insulin |  |  |  | inhibition of glucagon-induced G6Pase expression [1]: 60 to 70%; inhibition of glucagon-induced PEPCK expression [1]: 60 to 70%; effect on the recruitment of the Akt protein to the membrane after AG1024 (PI3K/Akt pathway; cells pre-incubated 1 h with 25 μM AG1024, Ia 50 μM, insulin 5 nM): no longer have any effect; BRET delta (PI3K/Akt pathway; insulin 5 nM alone): about 100 |
